# Source: patent US20060111437A1, “Hyperlipemia therapeutic agent” (Kowa Co., Ltd., priority 2004, published 2006)
# Experiment: Effect on blood triglyceride in rats after repeated oral administration
# Assay type: in vivo
# Details: male Wistar rats; orally once a day for 21 days; pitavastatin calcium 10 mg/kg and/or EPA-E 1000 mg/kg; blood taken after fasting for 18 hours since final administration; FIG. 1
# Protocol: Male Wistar rats aged 6 weeks (Japan Medical Science Experimental Animal Co., Ltd.) were tested. They were fed in a room maintained in a bright and dark cycle (bright duration by a room light: 7:00 a.m. to 7:00 p.m.) at a temperature of 23±3° C. and a humidity of 55±15% through an experimental duration and allowed to freely take a chow (CE-2; Nippon Clear Co., Ltd.) and city water. Pitavastatin calcium was suspended in a 0.5 mass % aqueous solution of sodium carboxymethyl cellulose (Iwai Kagaku Yakuhin Co., Ltd.) and controlled so that a dose was 2 ml/kg. Pitavastatin calcium contained 9.43 mass % of water, and therefore an amount as 1.1 mass time much as the dose was weighed to correct the practical dose. The suspension was refrigerated (4° C.) in a shaded bottle, and it was prepared every 7 days. EPA-E was taken from Epadel capsule (Dainippon Seiyaku Co., Ltd.) in use, suspended in refined water and controlled so that a dose was 2 ml/kg. […] The differences of multiple groups between the control group and the drug-administered groups were analyzed using Dunnett's multiple comparison test, preceded by Bartlett's analysis of variance.
smiles,measurement,value
O=C([O-])C[C@H](O)C[C@H](O)/C=C/c1c(C2CC2)nc2ccccc2c1-c1ccc(F)cc1.O=C([O-])C[C@H](O)C[C@H](O)/C=C/c1c(C2CC2)nc2ccccc2c1-c1ccc(F)cc1.[Ca+2] [pitavastatin calcium],triglyceride concentration in blood,tended to be lowered
